The source of these data is patent publication US9266871B2, “Trifluoromethyl-substituted fused pyrimidines and their use” (BAYER PHARMA AKTIENGESELLSCHAFT, priority 2013, dated 2016).

The assay has as its target T1, recombinant guanylate cyclase reporter cell line (Rattus norvegicus, UniProt P19686+P20595).
T1 construct: expressed in transfected cells; host or cells: recombinant reporter cell line
T1 sequence (P19686 1-690): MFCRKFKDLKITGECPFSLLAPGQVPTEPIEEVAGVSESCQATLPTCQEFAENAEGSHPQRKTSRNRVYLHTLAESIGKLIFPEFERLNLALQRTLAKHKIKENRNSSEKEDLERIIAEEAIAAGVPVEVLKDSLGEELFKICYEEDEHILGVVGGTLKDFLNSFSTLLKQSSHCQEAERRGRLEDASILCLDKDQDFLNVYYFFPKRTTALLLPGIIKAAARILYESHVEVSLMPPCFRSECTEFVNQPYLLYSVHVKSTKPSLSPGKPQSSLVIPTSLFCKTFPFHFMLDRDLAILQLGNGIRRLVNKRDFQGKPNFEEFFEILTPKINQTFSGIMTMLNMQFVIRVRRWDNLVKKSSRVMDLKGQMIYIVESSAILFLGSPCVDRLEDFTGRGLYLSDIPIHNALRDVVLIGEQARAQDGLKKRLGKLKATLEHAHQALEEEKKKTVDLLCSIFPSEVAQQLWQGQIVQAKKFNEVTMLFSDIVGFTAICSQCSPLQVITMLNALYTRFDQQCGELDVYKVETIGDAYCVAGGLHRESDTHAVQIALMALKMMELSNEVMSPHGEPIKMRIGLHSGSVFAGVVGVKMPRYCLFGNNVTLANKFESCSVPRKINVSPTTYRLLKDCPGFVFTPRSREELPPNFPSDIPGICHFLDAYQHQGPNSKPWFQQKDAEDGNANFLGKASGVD
T1 sequence (P20595 1-619): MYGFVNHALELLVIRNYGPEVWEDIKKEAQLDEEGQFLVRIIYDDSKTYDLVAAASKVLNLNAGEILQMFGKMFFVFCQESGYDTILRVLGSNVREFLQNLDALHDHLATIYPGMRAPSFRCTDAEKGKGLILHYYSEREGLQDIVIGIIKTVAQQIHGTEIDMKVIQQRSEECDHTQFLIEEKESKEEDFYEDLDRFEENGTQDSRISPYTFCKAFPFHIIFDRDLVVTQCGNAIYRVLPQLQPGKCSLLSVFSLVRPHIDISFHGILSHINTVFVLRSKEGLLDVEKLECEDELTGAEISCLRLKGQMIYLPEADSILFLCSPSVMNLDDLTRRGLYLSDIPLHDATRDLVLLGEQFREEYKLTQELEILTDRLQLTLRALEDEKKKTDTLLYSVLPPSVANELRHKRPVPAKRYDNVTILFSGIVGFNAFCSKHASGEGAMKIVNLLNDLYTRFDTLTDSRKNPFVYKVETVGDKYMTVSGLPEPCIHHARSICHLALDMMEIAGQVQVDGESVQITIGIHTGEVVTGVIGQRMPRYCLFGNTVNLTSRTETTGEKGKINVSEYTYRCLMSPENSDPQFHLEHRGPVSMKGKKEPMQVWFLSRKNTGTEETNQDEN
As to the kind of experiment: Effect on a recombinant guanylate cyclase reporter cell line. Format: cell-based. The method, then:
B-2. Effect on a Recombinant Guanylate Cyclase Reporter Cell Line
The cellular activity of the compounds according to the invention is determined using a recombinant guanylate cyclase reporter cell line, as described in F. Wunder et al., Anal. Biochem. 339, 104-112 (2005).

Regarding `C[C@@]1(C(F)(F)F)C(=O)Nc2nc(-c3nn(Cc4ncccc4F)c4ncc(F)cc34)nc(NCCC(F)(F)F)c21` (single isomer, unassigned) [Example 1-1], the “MEC (minimum effective concentration)” value worked out at 0.1 µM.

Take `C[C@]1(C(F)(F)F)C(=O)Nc2nc(-c3nn(Cc4ncccc4F)c4ncc(F)cc34)nc(NCCC(F)(F)F)c21` (single isomer, unassigned) [Example 1-2]: the “MEC (minimum effective concentration)” value was 1.0 µM.
